Data published in patent US6413733B1, “Stabilized reagent and method for determining creatine kinase” (Roche Diagnostics GmbH, priority 1997, dated 2002).

Legend:
Assay type in all cases: biochemical
creatine kinase (CK) [1] = test: Regeneration of the CK in R1 by adding sulfite in R2 (example 4); conditions: 10 mmol/l sulfite in R2
Description: (§1) For the determination 250 μl R1 is mixed with 10 μl sample, incubated for 5 minutes, the reaction is started with 50 μl R2 and the CK activity is measured after incubating for a further 1 minute. The CK or G6P-DH enzyme activity was determined after storage at 2 to 8° C. or 35° C. for various periods (table 1-3,FIGS. 1-3).
The mixing of R1, R2 and the respective sample and the subsequent determination were carried out according to example 1.

G6P-DH [2] = test: Long-term stability G6P-DH, 10 mmol/l DTT compared to 1 mmol/l Na2SO3
Description: as §1
The reagent R was combined with the sample to be measured as described in example 1 and the corresponding enzyme activities were determined (table 5,FIG. 5).

creatine kinase (CK) [3] = test: CK functional stability of the reagent with Na2SO3 (example 1); conditions: for CK functional stability, 35° C. compared to 2 to 8° C.: 14 days storage
Description: as §1

creatine kinase (CK) [4] = test: Influence of the amount of sulfite on the CK activity (example 2)
Description: as §1
The reagent composition and the test procedure are essentially analogous to example 1. Only the amount of sodium sulfite (0 to 20 mmol/l) added to reagent 1 was varied.

G6P-DH [5] = test: G6P-DH stability in the reagent with Na2SO3, 14 days storage (example 1); conditions: for G6P-DH stability, 35° C. compared to 2 to 8° C.: 14 days storage
Description: as §1

[6] = 1 mmol/l sulfite, example 1, 0 days at 2 to 8° C.
[7] = 1 mmol/l sulfite, example 1, 55 days at 2 to 8° C.
[8] = 1 mmol/l sulfite, example 1, 85 days at 2 to 8° C.
[9] = 1 mmol/l sulfite, example 1, 114 days at 2 to 8° C.
[10] = 1 mmol/l sulfite, example 1, 136 days at 2 to 8° C.
[11] = 1 mmol/l sulfite, example 1, 192 days at 2 to 8° C.
[12] = 1 mmol/l sulfite, example 1, 220 days at 2 to 8° C.
[13] = 1 mmol/l sulfite, example 1, 308 days at 2 to 8° C.
[14] = 1 mmol/l sulfite, example 1, 345 days at 2 to 8° C.
[15] = 1 mmol/l sulfite, example 1, 451 days at 2 to 8° C.
[16] = 1 mmol/l Na2SO3 in reagent 1, sample 1
[17] = 1 mmol/l Na2SO3 in reagent 1, sample 2
[18] = 2 mmol/l Na2SO3 in reagent 1, sample 1
[19] = 2 mmol/l Na2SO3 in reagent 1, sample 2
[20] = 3 mmol/l Na2SO3 in reagent 1, sample 1
[21] = 3 mmol/l Na2SO3 in reagent 1, sample 2
[22] = 4 mmol/l Na2SO3 in reagent 1, sample 1
[23] = 4 mmol/l Na2SO3 in reagent 1, sample 2
[24] = 10 mmol/l DTT, example 3, 0 days at 2 to 8° C.
[25] = 10 mmol/l DTT, example 3, 55 days at 2 to 8° C.
[26] = 10 mmol/l DTT, example 3, 85 days at 2 to 8° C.
[27] = 10 mmol/l DTT, example 3, 114 days at 2 to 8° C.
[28] = 10 mmol/l DTT, example 3, 136 days at 2 to 8° C.
[29] = 10 mmol/l DTT, example 3, 192 days at 2 to 8° C.
[30] = 10 mmol/l DTT, example 3, 220 days at 2 to 8° C.

O=S([O-])[O-].[Na+].[Na+] [Na2SO3, sodium sulfite]
CK activity, Sample 1 (creatine kinase (CK) [1]; R1 stress 14 days 2-8° C.): 238 U/l
CK activity, Sample 2 (creatine kinase (CK) [1]; R1 stress 14 days 2-8° C.): 509 U/l
recovery sample 1 (vs. fresh reagent) (creatine kinase (CK) [1]; R1 stress 14 days 2-8° C.): 100.8%
recovery sample 2 (vs. fresh reagent) (creatine kinase (CK) [1]; R1 stress 14 days 2-8° C.): 99.5%
CK activity, Sample 1 (creatine kinase (CK) [1]; R1 stress 14 days 35° C.): 227 U/l
CK activity, Sample 2 (creatine kinase (CK) [1]; R1 stress 14 days 35° C.): 486 U/l
recovery sample 1 (vs. fresh reagent) (creatine kinase (CK) [1]; R1 stress 14 days 35° C.): 96.2%
recovery sample 2 (vs. fresh reagent) (creatine kinase (CK) [1]; R1 stress 14 days 35° C.): 94.7%
G6P-DH activity (G6P-DH [2]; [6]): 3.68 U/ml
G6P-DH activity relative to day 0 (G6P-DH [2]; [6]): 100.0%
G6P-DH activity (G6P-DH [2]; [7]): 3.65 U/ml
G6P-DH activity relative to day 0 (G6P-DH [2]; [7]): 99.2%
G6P-DH activity (G6P-DH [2]; [8]): 3.77 U/ml
G6P-DH activity relative to day 0 (G6P-DH [2]; [8]): 102.3%
G6P-DH activity (G6P-DH [2]; [9]): 3.57 U/ml
G6P-DH activity relative to day 0 (G6P-DH [2]; [9]): 96.9%
G6P-DH activity (G6P-DH [2]; [10]): 3.35 U/ml
G6P-DH activity relative to day 0 (G6P-DH [2]; [10]): 91.0%
G6P-DH activity (G6P-DH [2]; [11]): 3.15 U/ml
G6P-DH activity relative to day 0 (G6P-DH [2]; [11]): 85.5%
G6P-DH activity (G6P-DH [2]; [12]): 3.12 U/ml
G6P-DH activity relative to day 0 (G6P-DH [2]; [12]): 84.7%
G6P-DH activity (G6P-DH [2]; [13]): 2.98 U/ml
G6P-DH activity relative to day 0 (G6P-DH [2]; [13]): 80.9%
G6P-DH activity (G6P-DH [2]; [14]): 2.65 U/ml
G6P-DH activity relative to day 0 (G6P-DH [2]; [14]): 72.0%
G6P-DH activity (G6P-DH [2]; [15]): 2.12 U/ml
G6P-DH activity relative to day 0 (G6P-DH [2]; [15]): 57.6%
CK activity, 14 days storage at 2 to 8° C. (creatine kinase (CK) [3]; [16]): 278 U/l
CK activity, 14 days storage at 35° C. (creatine kinase (CK) [3]; [16]): 267 U/l
CK functional stability, 35° C. compared to 2 to 8° C. (creatine kinase (CK) [3]; [16]): 96.0%
CK activity, 14 days storage at 2 to 8° C. (creatine kinase (CK) [3]; [17]): 540 U/l
CK activity, 14 days storage at 35° C. (creatine kinase (CK) [3]; [17]): 512 U/l
CK functional stability, 35° C. compared to 2 to 8° C. (creatine kinase (CK) [3]; [17]): 94.8%
CK activity, 14 days storage at 2 to 8° C. (creatine kinase (CK) [3]; [18]): 274 U/l
CK activity, 14 days storage at 35° C. (creatine kinase (CK) [3]; [18]): 265 U/l
CK functional stability, 35° C. compared to 2 to 8° C. (creatine kinase (CK) [3]; [18]): 97.0%
CK activity, 14 days storage at 2 to 8° C. (creatine kinase (CK) [3]; [19]): 530 U/l
CK activity, 14 days storage at 35° C. (creatine kinase (CK) [3]; [19]): 510 U/l
CK functional stability, 35° C. compared to 2 to 8° C. (creatine kinase (CK) [3]; [19]): 96.2%
CK activity, 14 days storage at 2 to 8° C. (creatine kinase (CK) [3]; [20]): 271 U/l
CK activity, 14 days storage at 35° C. (creatine kinase (CK) [3]; [20]): 267 U/l
CK functional stability, 35° C. compared to 2 to 8° C. (creatine kinase (CK) [3]; [20]): 98.5%
CK activity, 14 days storage at 2 to 8° C. (creatine kinase (CK) [3]; [21]): 523 U/l
CK activity, 14 days storage at 35° C. (creatine kinase (CK) [3]; [21]): 503 U/l
CK functional stability, 35° C. compared to 2 to 8° C. (creatine kinase (CK) [3]; [21]): 96.2%
CK activity, 14 days storage at 2 to 8° C. (creatine kinase (CK) [3]; [22]): 260 U/l
CK activity, 14 days storage at 35° C. (creatine kinase (CK) [3]; [22]): 272 U/l
CK functional stability, 35° C. compared to 2 to 8° C. (creatine kinase (CK) [3]; [22]): 104.4%
CK activity, 14 days storage at 2 to 8° C. (creatine kinase (CK) [3]; [23]): 505 U/l
CK activity, 14 days storage at 35° C. (creatine kinase (CK) [3]; [23]): 521 U/l
CK functional stability, 35° C. compared to 2 to 8° C. (creatine kinase (CK) [3]; [23]): 103.1%
CK activity, Sample 1 (creatine kinase (CK) [4]; sulfite 1 mmol/l test): 242 U/l
CK activity, Sample 2 (creatine kinase (CK) [4]; sulfite 1 mmol/l test): 530 U/l
CK function relative to 0 mmol/l sulfite, Sample 1 (creatine kinase (CK) [4]; sulfite 1 mmol/l test): 102.9%
CK function relative to 0 mmol/l sulfite, Sample 2 (creatine kinase (CK) [4]; sulfite 1 mmol/l test): 100.2%
CK activity, Sample 1 (creatine kinase (CK) [4]; sulfite 2 mmol/l test): 239 U/l
CK activity, Sample 2 (creatine kinase (CK) [4]; sulfite 2 mmol/l test): 520 U/l
CK function relative to 0 mmol/l sulfite, Sample 1 (creatine kinase (CK) [4]; sulfite 2 mmol/l test): 101.4%
CK function relative to 0 mmol/l sulfite, Sample 2 (creatine kinase (CK) [4]; sulfite 2 mmol/l test): 98.4%
CK activity, Sample 1 (creatine kinase (CK) [4]; sulfite 3 mmol/l test): 236 U/l
CK activity, Sample 2 (creatine kinase (CK) [4]; sulfite 3 mmol/l test): 514 U/l
CK function relative to 0 mmol/l sulfite, Sample 1 (creatine kinase (CK) [4]; sulfite 3 mmol/l test): 100.3%
CK function relative to 0 mmol/l sulfite, Sample 2 (creatine kinase (CK) [4]; sulfite 3 mmol/l test): 97.2%
CK activity, Sample 1 (creatine kinase (CK) [4]; sulfite 4 mmol/l test): 227 U/l
CK activity, Sample 2 (creatine kinase (CK) [4]; sulfite 4 mmol/l test): 496 U/l
CK function relative to 0 mmol/l sulfite, Sample 1 (creatine kinase (CK) [4]; sulfite 4 mmol/l test): 96.4%
CK function relative to 0 mmol/l sulfite, Sample 2 (creatine kinase (CK) [4]; sulfite 4 mmol/l test): 93.8%
CK activity, Sample 1 (creatine kinase (CK) [4]; sulfite 5 mmol/l test): 215 U/l
CK activity, Sample 2 (creatine kinase (CK) [4]; sulfite 5 mmol/l test): 504 U/l
CK function relative to 0 mmol/l sulfite, Sample 1 (creatine kinase (CK) [4]; sulfite 5 mmol/l test): 91.3%
CK function relative to 0 mmol/l sulfite, Sample 2 (creatine kinase (CK) [4]; sulfite 5 mmol/l test): 95.3%
CK activity, Sample 1 (creatine kinase (CK) [4]; sulfite 10 mmol/l test): 196 U/l
CK activity, Sample 2 (creatine kinase (CK) [4]; sulfite 10 mmol/l test): 464 U/l
CK function relative to 0 mmol/l sulfite, Sample 1 (creatine kinase (CK) [4]; sulfite 10 mmol/l test): 83.2%
CK function relative to 0 mmol/l sulfite, Sample 2 (creatine kinase (CK) [4]; sulfite 10 mmol/l test): 87.7%
CK activity, Sample 1 (creatine kinase (CK) [4]; sulfite 20 mmol/l test): 182 U/l
CK activity, Sample 2 (creatine kinase (CK) [4]; sulfite 20 mmol/l test): 441 U/l
CK function relative to 0 mmol/l sulfite, Sample 1 (creatine kinase (CK) [4]; sulfite 20 mmol/l test): 77.3%
CK function relative to 0 mmol/l sulfite, Sample 2 (creatine kinase (CK) [4]; sulfite 20 mmol/l test): 83.3%
G6P-DH activity, 14 days storage at 2 to 8° C. (G6P-DH [5]; 1 mmol/l Na2SO3 in reagent 1): 3.95 U/l
G6P-DH activity, 14 days storage at 35° C. (G6P-DH [5]; 1 mmol/l Na2SO3 in reagent 1): 1.50 U/l
G6P-DH stability, 35° C. compared to 2 to 8° C. (G6P-DH [5]; 1 mmol/l Na2SO3 in reagent 1): 38.1%
G6P-DH activity, 14 days storage at 2 to 8° C. (G6P-DH [5]; 2 mmol/l Na2SO3 in reagent 1): 3.92 U/l
G6P-DH activity, 14 days storage at 35° C. (G6P-DH [5]; 2 mmol/l Na2SO3 in reagent 1): 1.57 U/l
G6P-DH stability, 35° C. compared to 2 to 8° C. (G6P-DH [5]; 2 mmol/l Na2SO3 in reagent 1): 39.9%
G6P-DH activity, 14 days storage at 2 to 8° C. (G6P-DH [5]; 3 mmol/l Na2SO3 in reagent 1): 3.98 U/l
G6P-DH activity, 14 days storage at 35° C. (G6P-DH [5]; 3 mmol/l Na2SO3 in reagent 1): 1.69 U/l
G6P-DH stability, 35° C. compared to 2 to 8° C. (G6P-DH [5]; 3 mmol/l Na2SO3 in reagent 1): 42.5%
G6P-DH activity, 14 days storage at 2 to 8° C. (G6P-DH [5]; 4 mmol/l Na2SO3 in reagent 1): 4.06 U/l
G6P-DH activity, 14 days storage at 35° C. (G6P-DH [5]; 4 mmol/l Na2SO3 in reagent 1): 1.76 U/l
G6P-DH stability, 35° C. compared to 2 to 8° C. (G6P-DH [5]; 4 mmol/l Na2SO3 in reagent 1): 43.5%

O[C@H](CS)[C@H](O)CS (racemic) [DTT, dithiothreitol, reference compound]
G6P-DH activity (G6P-DH [2]; [24]): 4.67 U/ml
G6P-DH activity relative to day 0 (G6P-DH [2]; [24]): 100.0%
G6P-DH activity (G6P-DH [2]; [25]): 2.81 U/ml
G6P-DH activity relative to day 0 (G6P-DH [2]; [25]): 60.2%
G6P-DH activity (G6P-DH [2]; [26]): 2.69 U/ml
G6P-DH activity relative to day 0 (G6P-DH [2]; [26]): 57.6%
G6P-DH activity (G6P-DH [2]; [27]): 2.07 U/ml
G6P-DH activity relative to day 0 (G6P-DH [2]; [27]): 44.4%
G6P-DH activity (G6P-DH [2]; [28]): 1.55 U/ml
G6P-DH activity relative to day 0 (G6P-DH [2]; [28]): 33.1%
G6P-DH activity (G6P-DH [2]; [29]): 0.52 U/ml
G6P-DH activity relative to day 0 (G6P-DH [2]; [29]): 11.1%
G6P-DH activity (G6P-DH [2]; [30]): 0.29 U/ml
G6P-DH activity relative to day 0 (G6P-DH [2]; [30]): 6.2%
